# Experimental data taken from patent publication US12692269B2, “Therapeutic compounds” (Genentech, Inc., priority 2019, dated 2026).
# Legend:
# Format in all cases: binding
# TEAD1 YAP50-100 = TEAD1 YAP50-100 (Homo sapiens, UniProt P28347); experiment: TEAD1-YAP HTRF (TR-FRET) protein-protein interaction assay; settings: TEAD1, YAP peptide 50-100, HTRF; for EC50: read-out: TEAD1 YAP50-100 HTRF combined: EC50
# Method in brief: (§1)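 Compounds were first allowed 30 min to bind Eu-antibody-tagged His-TEAD (YAP-binding domain, aa 217-447). Biotinylated YAP 50-100 or TAZ 13-57 peptide complexed with streptavidin-XL665 was then added for 60 min at room temperature, and loss of TR-FRET signal gave IC50 or EC50 values.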
# TEAD2 YAP50-100 = TEAD2 YAP50-100 (Homo sapiens, UniProt Q15562); experiment: TEAD2-YAP HTRF (TR-FRET) protein-protein interaction assay; settings: TEAD2, YAP peptide 50-100, HTRF; for EC50: read-out: TEAD2 YAP50-100 HTRF combined: EC50
# TEAD2 YAP50-100, sequence (Q15562 217-447): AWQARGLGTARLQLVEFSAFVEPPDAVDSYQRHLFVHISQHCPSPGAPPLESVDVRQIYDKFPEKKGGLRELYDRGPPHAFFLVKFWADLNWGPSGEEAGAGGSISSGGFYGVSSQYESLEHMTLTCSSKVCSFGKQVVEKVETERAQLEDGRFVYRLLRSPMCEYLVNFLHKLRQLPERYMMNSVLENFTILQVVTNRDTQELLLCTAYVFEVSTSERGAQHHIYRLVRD
# Method in brief: as §1
# TEAD3 YAP50-100 = TEAD3 YAP50-100 (Homo sapiens, UniProt Q99594); experiment: TEAD3-YAP HTRF (TR-FRET) protein-protein interaction assay; settings: TEAD3, YAP peptide 50-100, HTRF; for EC50: read-out: TEAD3 YAP50-100 HTRF combined: EC50
# TEAD3 YAP50-100, sequence (Q99594 173-435 limits assumed): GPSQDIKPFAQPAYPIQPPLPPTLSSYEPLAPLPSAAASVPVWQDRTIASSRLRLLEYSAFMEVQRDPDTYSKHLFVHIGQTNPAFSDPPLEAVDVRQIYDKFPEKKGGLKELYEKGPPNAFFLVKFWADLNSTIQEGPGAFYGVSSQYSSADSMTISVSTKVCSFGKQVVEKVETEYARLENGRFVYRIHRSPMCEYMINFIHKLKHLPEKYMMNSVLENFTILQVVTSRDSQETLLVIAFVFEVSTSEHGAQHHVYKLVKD
# Method in brief: as §1
# TEAD4 YAP50-100 = TEAD4 YAP50-100 (Homo sapiens, UniProt Q15561); experiment: TEAD4-YAP HTRF (TR-FRET) protein-protein interaction assay; settings: TEAD4, YAP peptide 50-100, HTRF; for EC50: read-out: TEAD4 YAP50-100 HTRF combined: EC50
# TEAD4 YAP50-100, sequence (Q15561 217-434 limits assumed): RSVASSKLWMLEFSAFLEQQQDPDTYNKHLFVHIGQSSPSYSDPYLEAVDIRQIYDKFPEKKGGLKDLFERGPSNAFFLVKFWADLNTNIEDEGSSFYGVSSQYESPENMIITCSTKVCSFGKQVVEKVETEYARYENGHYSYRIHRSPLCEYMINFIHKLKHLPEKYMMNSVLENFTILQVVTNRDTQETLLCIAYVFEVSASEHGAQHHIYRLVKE
# Method in brief: as §1
# [1] = target: TEAD1 TAZ (amino acids 13-57) (Homo sapiens, UniProt P28347); experiment: TEAD1-TAZ HTRF (TR-FRET) protein-protein interaction assay; settings: for TEAD1 TAZ HTRF combined: Max % Inhibition: TEAD1, TAZ peptide; for EC50: TEAD1-TAZ HTRF, TR-FRET 665 nm/615 nm, read-out: TEAD1 TAZ HTRF combined: EC50
# TEAD1 TAZ (amino acids 13-57), sequence (P28347 167-426 limits assumed): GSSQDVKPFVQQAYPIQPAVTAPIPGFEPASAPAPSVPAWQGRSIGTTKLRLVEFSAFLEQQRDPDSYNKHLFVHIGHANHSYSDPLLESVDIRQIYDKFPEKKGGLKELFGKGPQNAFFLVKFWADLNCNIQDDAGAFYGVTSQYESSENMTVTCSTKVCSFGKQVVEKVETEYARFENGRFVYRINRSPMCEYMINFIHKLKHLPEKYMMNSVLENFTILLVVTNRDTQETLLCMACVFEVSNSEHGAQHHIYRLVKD
# Method in brief: as §1
# [2] = target: TEAD2 TAZ (amino acids 13-57) (Homo sapiens, UniProt Q15562); experiment: TEAD2-TAZ HTRF (TR-FRET) protein-protein interaction assay; settings: for TEAD2 TAZ HTRF combined: Max % Inhibition: TEAD2, TAZ peptide; for EC50: TEAD2-TAZ HTRF, TR-FRET 665 nm/615 nm, read-out: TEAD2 TAZ HTRF combined: EC50
# TEAD2 TAZ (amino acids 13-57), sequence (Q15562 217-447): as the sequence (Q15562 217-447) above
# Method in brief: as §1
# [3] = target: TEAD3 TAZ (amino acids 13-57) (Homo sapiens, UniProt Q99594); experiment: TEAD3-TAZ HTRF (TR-FRET) protein-protein interaction assay; settings: for TEAD3 TAZ HTRF combined: Max % Inhibition: TEAD3, TAZ peptide; for EC50: TEAD3-TAZ HTRF, TR-FRET 665 nm/615 nm, read-out: TEAD3 TAZ HTRF combined: EC50
# TEAD3 TAZ (amino acids 13-57), sequence (Q99594 173-435 limits assumed): as the sequence (Q99594 173-435 limits assumed) above
# Method in brief: as §1
# [4] = target: TEAD4 TAZ (amino acids 13-57) (Homo sapiens, UniProt Q15561); experiment: TEAD4-TAZ HTRF (TR-FRET) protein-protein interaction assay; settings: for TEAD4 TAZ HTRF combined: Max % Inhibition: TEAD4, TAZ peptide; for EC50: TEAD4-TAZ HTRF, TR-FRET 665 nm/615 nm, read-out: TEAD4 TAZ HTRF combined: EC50
# TEAD4 TAZ (amino acids 13-57), sequence (Q15561 217-434 limits assumed): as the sequence (Q15561 217-434 limits assumed) above
# Method in brief: as §1
# TEAD1 YAP50-100, sequence (P28347 167-426 limits assumed): as the sequence (P28347 167-426 limits assumed) above
Compound,TEAD1 YAP50-100 HTRF combined: Max % Inhibition (TEAD1 YAP50-100) [%],EC50 (TEAD1 YAP50-100) [nM],TEAD2 YAP50-100 HTRF combined: Max % Inhibition (TEAD2 YAP50-100) [%],EC50 (TEAD2 YAP50-100) [nM],TEAD3 YAP50-100 HTRF combined: Max % Inhibition (TEAD3 YAP50-100) [%],EC50 (TEAD3 YAP50-100) [nM],TEAD4 YAP50-100 HTRF combined: Max % Inhibition (TEAD4 YAP50-100) [%],EC50 (TEAD4 YAP50-100) [nM],TEAD1 TAZ HTRF combined: Max % Inhibition [1] [%],EC50 [1] [nM],TEAD2 TAZ HTRF combined: Max % Inhibition [2] [%],EC50 [2] [nM],TEAD3 TAZ HTRF combined: Max % Inhibition [3] [%],EC50 [3] [nM],TEAD4 TAZ HTRF combined: Max % Inhibition [4] [%],EC50 [4] [nM]
"Cc1cnc(-c2nn3c(=O)cc(-c4ccc(C5CCCCC5)cc4)[nH]c3c2C(=O)N2CC(CF)C2)cn1 [Compound 26, 5-(4-Cyclohexylphenyl)-3-(3-(fluoromethyl)azetidine-1-carbonyl)-2-(5-methylpyrazin-2-yl) pyrazolo [1,5-a]pyrimidin-7(4H)-one]",71.0,60,70.0,30,66.0,140,44.5,340,70.0,100,72.5,30,60.0,150,45.5,290
"O=C(c1c(C2CNCCO2)nn2c(=O)cc(-c3ccc(C4CCCCC4)cc3)[nH]c12)N1CC(CF)C1 (single isomer, unassigned) [Enantiomer B, Example 63, 5-(4-Cyclohexylphenyl)-3-[3-(fluoromethyl)azetidine-1-carbonyl]-2-morpholin-2-yl-4H-pyrazolo[1,5-a]pyrimidin-7-one]",62.0,90,62.5,40,59.5,150,35.0,1090,52.0,140,65.0,30,52.0,160,28.0,590
"CC(CO)c1nn2c(=O)cc(-c3ccc(C4CCCCC4)cc3)[nH]c2c1C(=O)N1CC[C@@H](C#N)C1 (single isomer, unassigned) [Final product obtained using Enantiomer A from Step 4, Example 54]",59.0,130,65.0,40,71.5,250,47.5,550,41.5,240,71.0,40,73.0,260,44.5,480
"Cc1nccnc1-c1nn2c(=O)cc(-c3ccc(O[C@H](c4ccccc4)C(F)(F)F)cc3)[nH]c2c1C(=O)N1CC(CF)C1 [Compound 68, (R)-3-(3-(Fluoromethyl)azetidine-1-carbonyl)-2-(3-methylpyrazin-2-yl)-5-(4-(2,2,2-trifluoro-1-phenylethoxy)phenyl)pyrazolo[1,5-a]pyrimidin-7(4H)-one]",65.0,190,84.0,60,67.5,510,64.5,5550,63.0,270,75.5,60,64.5,590,61.5,4950
"CCc1ccnc(-c2nn3c(=O)cc(-c4ccc(C5CCCCC5)cc4)[nH]c3c2C(=O)N2CC(CF)C2)n1 [Compound 12, 5-(4-Cyclohexylphenyl)-2-(4-ethylpyrimidin-2-yl)-3-(3-(fluoromethyl)azetidine-1-carbonyl)pyrazolo[1,5-a]pyrimidin-7(4H)-one]",72.0,140,69.0,20,66.0,190,55.0,200,67.5,110,64.5,20,56.0,240,58.0,180
"O=C(c1c(-c2ccccn2)nn2c(=O)cc(-c3ccc(C4CCCCC4)cc3)[nH]c12)N1CC(CF)C1 [Compound 16, 5-(4-Cyclohexylphenyl)-3-(3-(fluoromethyl)azetidine-1-carbonyl)-2-(pyridin-2-yl)pyrazolo[1,5-a]pyrimidin-7(4H)-one]",70.0,60,57.5,10,55.0,80,40.5,20,59.5,50,53.5,10,44.5,80,38.0,20

# More lines, now with the values ahead:
TEAD1 YAP50-100 HTRF combined: Max % Inhibition (TEAD1 YAP50-100) [%],EC50 (TEAD1 YAP50-100) [nM],TEAD2 YAP50-100 HTRF combined: Max % Inhibition (TEAD2 YAP50-100) [%],EC50 (TEAD2 YAP50-100) [nM],TEAD3 YAP50-100 HTRF combined: Max % Inhibition (TEAD3 YAP50-100) [%],EC50 (TEAD3 YAP50-100) [nM],TEAD4 YAP50-100 HTRF combined: Max % Inhibition (TEAD4 YAP50-100) [%],EC50 (TEAD4 YAP50-100) [nM],TEAD1 TAZ HTRF combined: Max % Inhibition [1] [%],EC50 [1] [nM],TEAD2 TAZ HTRF combined: Max % Inhibition [2] [%],EC50 [2] [nM],TEAD3 TAZ HTRF combined: Max % Inhibition [3] [%],EC50 [3] [nM],TEAD4 TAZ HTRF combined: Max % Inhibition [4] [%],EC50 [4] [nM],Compound
77.0,60,67.0,10,70.5,120,60.5,670,72.0,60,65.0,10,61.5,140,62.0,540,"CC(C)c1ccnc(-c2nn3c(=O)cc(-c4ccc(C5CCCCC5)cc4)[nH]c3c2C(=O)N2CC(CF)C2)n1 [Compound 10, 5-(4-Cyclohexylphenyl)-3-(3-(fluoromethyl)azetidine-1-carbonyl)-2-(4-isopropylpyrimidin-2-yl)pyrazolo[1,5-a]pyrimidin-7(4H)-one]"
71.0,80,64.0,10,61.5,80,36.5,200,45.5,90,57.0,20,53.5,100,27.0,140,"C[C@@H](CO)c1nn2c(=O)cc(-c3ccc(C4CCCCC4)cc3)[nH]c2c1C(=O)N1CC(CF)C1 (single isomer, unassigned) [Enantiomer B, Example 55]"
66.0,140,66.0,40,62.0,180,40.0,1600,55.5,130,66.0,40,55.5,200,30.5,1550,"O=C(c1c(C2CNCCO2)nn2c(=O)cc(-c3ccc(C4CCCCC4)cc3)[nH]c12)N1CC(CF)C1 (single isomer, unassigned) [Enantiomer A, Example 63, 5-(4-Cyclohexylphenyl)-3-[3-(fluoromethyl)azetidine-1-carbonyl]-2-morpholin-2-yl-4H-pyrazolo[1,5-a]pyrimidin-7-one]"
